Reference: patent US9090615B2, “Adamantyl derivatives as cannabinoid receptor 2 agonists” (Hoffmann-La Roche Inc., priority 2012, dated 2015)
Read-outs that look alike come from different tables or passages of the source.

Tests used:
human CB1 receptors = biological target: T1, human CB1 receptors (Homo sapiens, UniProt P21554); assay: functional cAMP assay, CHO cells expressing human CB1; type: cell-based
T1 construct: expressed in transfected cells; host or cells: CHO cells
Description: CHO cells expressing human CB1 or CB2 receptors are seeded 17-24 hours prior to the experiment 50.000 cells per well in a black 96 well plate with flat clear bottom (Corning Costar #3904) in DMEM (Invitrogen No. 31331), 1×HT supplement, with 10% fetal calf serum and incubated at 5% CO2 and 37° C. in a humidified incubator. The growth medium was exchanged with Krebs Ringer Bicarbonate buffer with 1 mM IBMX and incubated at 30° C. for 30 min. Compounds were added to a final assay volume of 100 μl and incubated for 30 min at 30° C. Using the cAMP-Nano-TRF detection kit the assay (Roche Diagnostics) was stopped by the addition of 50 μl lysis reagent (Tris, NaCl, 1.5% Triton X100, 2.5% NP40, 10% NaN3) and 50 μl detection solutions (20 μM mAb Alexa700-cAMP 1:1, and 48 μM Ruthenium-2-AHA-cAMP) and shaken for 2 h at room temperature. The time-resolved energy transfer is measured by a TRF reader (Evotec Technologies GmbH), equipped with a ND:YAG laser as excitation source. The plate is measured twice with the excitation at 355 nm and at the emission with a delay of 100 ns and a gate of 100 ns, total exposure time 10 s at 730 (bandwidth 30 nm) or 645 nm (bandwidth 75 nm), respectively. The FRET signal is calculated as follows: FRET=T730-Alexa730-P(T645-B645) with P=Ru730-B730/Ru645-B645, where T730 is the test well measured at 730 nM, T645 is the test well measured at 645 nm, B730 and B645 are the buffer controls at 730 nm and 645 nm, respectively. cAMP content is determined from the function of a standard curve spanning from 10 μM to 0.1 nM cAMP.
EC50 values were determined using Activity Base analysis (ID Business Solution, Limited). The EC50 values for a wide range of cannabinoid agonists generated from this assay were in agreement with the values published in the scientific literature.

human CB2 receptors = biological target: T2, human CB2 receptors (Homo sapiens, UniProt P34972); assay: functional cAMP assay, CHO cells expressing human CB2; type: cell-based
T2 construct: expressed in transfected cells; host or cells: CHO cells
Description: The growth medium was exchanged with Krebs Ringer Bicarbonate buffer with 1 mM IBMX and incubated at 30° C. for 30 min. Compounds were added to a final assay volume of 100 μl and incubated for 30 min at 30° C. […] The time-resolved energy transfer is measured by a TRF reader (Evotec Technologies GmbH), equipped with a ND:YAG laser as excitation source. The plate is measured twice with the excitation at 355 nm and at the emission with a delay of 100 ns and a gate of 100 ns, total exposure time 10 s at 730 (bandwidth 30 nm) or 645 nm (bandwidth 75 nm), respectively.
EC50 values were determined using Activity Base analysis (ID Business Solution, Limited).

[1] = CHO cells expressing human CB1, read-out: Ec50:CB1 - hu cAMP
[2] = CHO cells expressing human CB2, read-out: Ec50:CB2 - hu cAMP

T2 sequence (P34972 whole entry): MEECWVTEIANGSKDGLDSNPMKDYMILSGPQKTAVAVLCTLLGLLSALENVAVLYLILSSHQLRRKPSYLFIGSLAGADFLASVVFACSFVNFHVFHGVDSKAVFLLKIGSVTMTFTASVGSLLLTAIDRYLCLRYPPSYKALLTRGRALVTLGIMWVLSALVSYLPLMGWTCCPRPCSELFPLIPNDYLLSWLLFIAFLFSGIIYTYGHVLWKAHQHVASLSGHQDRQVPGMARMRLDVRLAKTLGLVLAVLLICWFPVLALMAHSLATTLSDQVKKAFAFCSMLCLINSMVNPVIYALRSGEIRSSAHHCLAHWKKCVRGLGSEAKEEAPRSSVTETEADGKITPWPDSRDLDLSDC
T1 sequence (P21554 whole entry): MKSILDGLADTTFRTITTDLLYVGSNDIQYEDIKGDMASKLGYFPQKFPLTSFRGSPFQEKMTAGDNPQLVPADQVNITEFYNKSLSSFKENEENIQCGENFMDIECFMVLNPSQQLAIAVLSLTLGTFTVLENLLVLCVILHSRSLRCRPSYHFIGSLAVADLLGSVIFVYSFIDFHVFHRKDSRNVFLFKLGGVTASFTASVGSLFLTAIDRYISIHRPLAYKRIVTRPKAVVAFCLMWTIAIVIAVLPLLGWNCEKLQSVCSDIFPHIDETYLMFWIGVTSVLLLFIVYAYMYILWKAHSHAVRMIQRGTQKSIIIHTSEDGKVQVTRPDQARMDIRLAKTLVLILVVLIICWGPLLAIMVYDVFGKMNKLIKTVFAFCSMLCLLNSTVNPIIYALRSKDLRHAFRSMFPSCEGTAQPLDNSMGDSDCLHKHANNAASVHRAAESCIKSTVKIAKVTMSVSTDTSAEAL

EC50 (human CB1 receptors; [1]) [nM] | EC50 (human CB2 receptors; [2]) [nM] | Compound | EC50 (human CB1 receptors) [nM] | EC50 (human CB2 receptors) [nM]
> 10000 | 6.6 | Cc1ccc2c(c1)N(C(=O)C13CC4CC(CC(C4)C1)C3)CC2 [Example 27, Adamantan-1-yl-(6-methyl-2,3-dihydro-indol-1-yl)-methanone] |  | 
> 10000 | 2.4 | O=C(NC12CC3CC(CC(C3)C1)C2)N1CCc2ccccc21 [Example 38, 2,3-Dihydro-indole-1-carboxylic acid adamantan-1-ylamide] |  | 
 |  | CN1CCN(C(=O)C23C[C@H]4C[C@@H](C2)C[C@@H](C3)C4)c2ccccc21 [Example 31, Adamantan-1-yl-(4-methyl-3,4-dihydro-2H-quinoxalin-1-yl)-methanone] | > 10000 | 28.9
 |  | O=C(N1CCc2c(F)cc(F)cc21)C12CC3CC(CC(C3)C1)C2 [Example 16, Adamantan-1-yl-(4,6-difluoro-2,3-dihydro-indol-1-yl)-methanone] | > 10000 | 54
 |  | CC1(C)CN(C(=O)C23C[C@H]4C[C@@H](C2)C[C@@H](C3)C4)c2ccccc21 [Example 23, Adamantan-1-yl-(3,3-dimethyl-2,3-dihydro-indol-1-yl)-methanone] | > 10000 | 15.9
> 10000 | 261 | CC1Cc2ccccc2N1C(=O)C12CC3CC(CC(C3)C1)C2 (stereo not drawn) [Example 10, Adamantan-1-yl-(2-methyl-2,3-dihydro-indol-1-yl)-methanone] |  | 
> 10000 | 29.6 | COc1cccc2c1CCN2C(=O)C12CC3CC(CC(C3)C1)C2 [Example 29, Adamantan-1-yl-(4-methoxy-2,3-dihydro-indol-1-yl)-methanone] |  | 
> 10000 | 265 | O=C(N1CCC(O)c2ccccc21)C12CC3CC(CC(C3)C1)C2 (stereo not drawn) [Example 9, Adamantan-1-yl-(4-hydroxy-3,4-dihydro-2H-quinolin-1-yl)-methanone] |  | 

Compound | EC50 (human CB1 receptors; [1]) [nM] | EC50 (human CB2 receptors; [2]) [nM] | EC50 (human CB1 receptors) [nM] | EC50 (human CB2 receptors) [nM]
O=C(N1CCc2c1ccnc2Cl)C12CC3CC(CC(C3)C1)C2 [Example 20, Adamantan-1-yl-(4-chloro-2,3-dihydro-pyrrolo[3,2-c]pyridin-1-yl)-methanone] | > 10000 | 273 |  | 
